Assay type in all cases: physicochemical
A short description of data set [1]: Mechanical stress experiments (ball mill, dry/wet grinding). From the text:
h. Mechanical Stress Experiments
Samples of starting material were placed in a Retsch ball mill and milled for two five-minute cycles without solvent (dry grinding) or with a small amount of solvent added (wet grinding) scraping the solids between the cycles. Ten-minute cycles were used for milling of a selected sample without addition of solvent.

Data set [2] is described as follows: Aqueous vapor stress experiments. The note with it: for XRPD result after aqueous vapor stress: 2 days. How it is done: d. Aqueous Vapor Stress Experiments
Samples of starting material were exposed to ˜85% and ˜97% relative humidity at ambient temperature and ˜75% relative humidity at ˜40° C. for a specified duration.

Data set [3] can be described thus: Organic vapor stress experiments. The settings on record: 11 days. How it is done: e. Organic Vapor Stress Experiments
Samples of starting material were exposed to vapors of a specified organic solvent for a given amount of time by placing open vials with solids tested into 20 mL vials containing solvent. Organic vapor stress experiments were conducted at ambient temperature.

Data set [4] in a line: Moisture sorption analysis (VTI SGA-100, 5 to 95% RH). The note with it: for hysteresis upon desorption: decreasing relative humidity; for hysteresis upon desorption / weight loss between ~95% and ~5% RH: desorption; for weight loss between ~95% and ~5% RH: ~95% to ~5% RH; for weight change upon equilibration at ~5% RH: moisture sorption; for weight gain between ~5% and ~75% RH: ~5% to ~75% RH; for weight gain between ~75% and ~95% RH: ~75% to ~95% RH. How it is done:
9. Moisture Sorption Analysis
Moisture sorption/desorption data were collected on a VTI SGA-100 Vapor Sorption Analyzer. NaCl and PVP were used as calibration standards. Samples were not dried prior to analysis. Sorption and desorption data were collected over a range from 5 to 95% RH at 10% RH increments under a nitrogen purge. The equilibrium criterion used for analysis was less than 0.0100% weight change in 5 minutes with a maximum equilibration time of 3 hours. Data were not corrected for the initial moisture content of the samples.

The nature of data set [5]: Slurry experiments (incl. water activity slurries). On the procedure:
Solutions were prepared by addition of a solvent or solvent mixture to the starting material with excess solids present. The mixtures were then agitated in sealed vials at either ambient or a set temperature. For agitation at subambient temperature, chilled solvent was added and the sample was immediately transferred to a freezer. After a given amount of time, the solids were isolated.

On to `Fc1cc(F)c2c(c1)C[C@@H](n1c(CCNCc3ccccc3)c[nH]c1=S)CO2` [Form A, 1-[(3R)-6,8-difluoro-3,4-dihydro-2H-1-benzopyran-3-yl]-1,3-dihydro-5-[2-[(phenylmethyl)amino]ethyl]-2H-imidazole-2-thione], for which the “XRPD result after mechanical stress” value is on record as “Form A” in data set [1] (Acetone, wet grinding, 2 × 5 min. cycles); “Form A” in data set [1] (DMF, wet grinding, 2 × 5 min. cycles); “Form A (disordered)” in data set [1] (Dry grinding, 2 × 5 min. cycles); “Form A (disordered)” in data set [1] (Dry grinding, 2 × 10 min. cycles); “Form A” in data set [1] (MEK, wet grinding, 2 × 5 min. cycles); “Form A” in data set [1] (TFE, wet grinding, 2 × 5 min. cycles). For the same compound, in data set [1] (THF, wet grinding, 2 × 5 min. cycles), the “XRPD result after mechanical stress” value is “Form A”. The “stability of the crystal form upon mechanical stress” value in data set [1] (summary statement) was “remains stable as a crystal form”. The “XRPD result after aqueous vapor stress” value is recorded as “Form A” in data set [2] (75% RH, 40° C.) and “Form A” in data set [2] (85% RH). Further, the “stability of the crystal form upon aqueous vapor stress” value in data set [2] (summary statement) was “remains stable as a crystal form”. The “XRPD result after organic vapor stress” value in data set [3] (CHCl3, vapor stress) is “Form A”; in data set [3] (EtOAc, vapor stress) it was “Form A”. Moreover, in data set [4] (5% to 95% RH), the hygroscopicity result is “low hygroscopicity (a material that exhibits <0.5 wt(weight) % water uptake over a specified relative humidity range)”. Further, the hysteresis upon desorption result in data set [4] was “hysteresis between around 85% to around 45% RH”; in data set [4] (listed as Lot 5), “Small hysteresis”; in data set [4] (listed as lot 5), “small hysteresis”. The “weight loss between ~95% and ~5% RH” value is listed as “around 0.20 wt %” in data set [4], ~0.20 wt % in data set [4] (listed as Lot 5) and ~0.20 wt % in data set [4] (listed as lot 5). In addition, the “weight change upon equilibration at ~5% RH” value in data set [4] was “negligible loss”; in data set [4] (listed as Lot 5), “Negligible loss upon equilibration at ~5% RH”; in data set [4] (listed as lot 5) it was “negligible weight loss”. Further, the “weight gain between ~5% and ~75% RH” value in data set [4] (sorption) is “around 0.02 wt %”; in data set [4] (sorption, listed as Lot 5), ~0.02 wt % gain between ~5% and ~75% RH; in data set [4] (sorption, listed as lot 5) it was ~0.02 wt %. Besides, in data set [4] (sorption, ~5% to ~95% RH, listed as lot 5), the “total water uptake between ~5% and ~95% RH” value is ~0.21 wt %. For the same compound, the “weight gain between ~75% and ~95% RH” value in data set [4] (sorption) is “around 0.19 wt %”; in data set [4] (sorption, listed as Lot 5), ~0.19 wt % gain between ~75% and ~95% RH; in data set [4] (sorption, listed as lot 5) it was ~0.19 wt %.

Take `Fc1cc(F)c2c(c1)C[C@@H](n1c(CCNCc3ccccc3)c[nH]c1=S)CO2` [compound 2, 1-[(3R)-6,8-difluoro-3,4-dihydro-2H-1-benzopyran-3-yl]-1,3-dihydro-5-[2-[(phenylmethyl)amino]ethyl]-2H-imidazole-2-thione]: the “XRPD result of water activity slurry” value is reported as “Material C (close to Form A + peaks)” in data set [5] (amorphous starting material sample no. 2, Water, 50° C., 3 days, aw 1, sample no. 119); “Form A^c” in data set [5] (amorphous starting material sample no. 3, Acetone/water (25/75), aw 0.95, ambient, 6 days, sample no. 108); “Form A^c” in data set [5] (amorphous starting material sample no. 3, Acetone/water (33/67), aw 0.93, ambient, 6 days, washed w/ acetone/water (33/67), sample no. 107); “Form A” in data set [5] (amorphous starting material sample no. 3, Acetone/water (60/40), aw 0.89, ambient, 6 days, sample no. 106); “Form A” in data set [5] (amorphous starting material sample no. 3, Acetone/water (82/18), aw 0.80, ambient, 6 days, sample no. 105); “Form A” in data set [5] (amorphous starting material sample no. 3, Acetone/water (88/12), aw 0.73, ambient, 6 days, sample no. 104). The “XRPD result of water activity slurry” value is “Form A^c” in data set [5] (amorphous starting material sample no. 3, DMF/water (9/91), aw 0.98, RT, 5 days, washed w/ water, sample no. 115); “Form A^c” in data set [5] (amorphous starting material sample no. 3, DMSO/water (10/90), aw 0.97, RT, 5 days, washed w/ water, sample no. 116); “Form A^c” in data set [5] (amorphous starting material sample no. 3, EtOH/water (67/33), aw 0.82, 40° C., 2 days, sample no. 111); “Form A^c” in data set [5] (amorphous starting material sample no. 3, Ethanol/water (20/80), aw 0.95, ambient, 6 days, sample no. 113); “Form A^c” in data set [5] (amorphous starting material sample no. 3, Ethanol/water (47/53), aw 0.90, ambient, 6 days, sample no. 112); “Form A^c” in data set [5] (amorphous starting material sample no. 3, Ethanol/water (70/30), aw 0.80, ambient, 6 days, sample no. 110). Moreover, the “XRPD result of water activity slurry” value is on record as “Form A^c” in data set [5] (amorphous starting material sample no. 3, Ethanol/water (80/20), aw 0.70, ambient, 6 days, sample no. 109); “Form A^c” in data set [5] (amorphous starting material sample no. 3, IPA/water (50/50), aw 0.96, 40° C., 2 days, sample no. 114); “Form A^c” in data set [5] (amorphous starting material sample no. 3, MeOH/water (50/50), aw 0.75, ambient, 6 days, washed w/ MeOH/water (50/50), sample no. 117); “Form A^c” in data set [5] (amorphous starting material sample no. 3, THF/water (50/50), aw 1.03, ambient, 6 days, washed w/ THF/water (50/50), VO, RT, 1 h, sample no. 118); “Form A” in data set [5] (amorphous starting material sample no. 3, Water, RT, 4 days, surfactant as wetting agent, aw 1, sample no. 121).
